Patent publication US20220243211A1, “PEPTIDE NUCLEIC ACID COMPOSITIONS WITH MODIFIED HOOGSTEEN BINDING SEGMENTS AND METHODS OF USE THEREOF” (Yale University, priority 2019, published 2022)

Tests used:
Type in all cases: cell-based, human
[1] = system: F508 del CFTR in CFBE cells at ALI; experiment: Digital droplet PCR quantification of gene editing; conditions: apical PNA/DNA NPs, 2 mg/dose, 3 doses
Experimental: (§1) FIG. 5A is a Schematic of treatment of cells grown at ALI. FIG. 5B is a bar graph showing Ussing Chamber assay results. CFBE cells at ALI were treated apically at 2 mg/dose for 3 doses with 48 hours between each dose **p<0.001; ***p<0.002. FIG. 5C is a dot plot showing digital droplet (ddPCR) quantification of gene editing in genomic DNA isolated from CFBE cells at ALI treated apically at 2 mg/dose for 3 doses with 48 hours between each dose ***p<0.002.
Nanoparticles were suspended in culture media, vortexted, and sonicated in a water bath (30s) and added directly to cells. For cells treated on collagen-coated plastic in 12-well plates, the cells were treated at a concentration of 2 mg/mL. For cells treated in 6-well plates at ALI, the cells were treated apically with 250 uL of media containing 2 mg of particles. […]
gDNA was extracted from CFBE cells using the Wizard SV DNA Purification System (Promega, Madison, Wis.) according to manufacturer's instructions. The concentration of extracted gDNA samples was measured using a QuBit® dsDNA BR assay kit (Invitrogen, Carlsbad, Calif.) according to manufacturer's instructions. […] Droplets were allowed to rest at 4° C. for at least 30 minutes after cycling and were then read using the QX200™ Droplet Reader (Bio-Rad). Data were analyzed using QuantaSoft™ software. […]

[2] = system: F508del CFTR gene in CFBE cells; experiment: Allele-specific PCR for gene modification; conditions: CFBE cells treated with PNA/donor DNA NPs
Experimental: Genomic DNA was harvested from cells and purified using the Wizard Genomic DNA Purification kit (Promega, Madison Wis.). Equal amounts of genomic DNA from each sample were subjected to allele-specific PCR (ASPCR), with a gene-specific reverse primer, and an allele-specific forward primer. PCR was performed using a Eppendorf master cycler X50. PCR products were separated on a 1% agarose gel and visualized using a gel imager.
AS-PCR conditions are as follows. Platinum Taq polymerase (Invitrogen, Carlsbad Calif.) was used for PCR reactions: 5 uL betaine, 4.25 uL water, 2.5 uL 10× Platinum Taq PCR buffer, 1.25 uL 50 mM MgCl2, 0.5 uL dNTPs, 0.5 uL each primer at 10 uM, 0.5 uL Platinum Taq polymerase, and 10 uL of genomic DNA at 40 ng/uL. PCR cycler conditions for human CFTR were as follows: 95° C. 2 min, 94° C. 30 sec, 69° C. 1 min, 72° C. 1 min, 94° C. 30 sec, 68° C. 1 min, 72° C. 1 min, 94° C. 30 sec, 67° C. 1 min, 72° C. 1 min, 94° C. 30 sec, 66° C. 1 min, 72° C. 1 min, 94° C. 30 sec, 65° C. 1 min, 72° C. 1 min, [94° C. 30 sec, 65° C. 1 min, 72° C. 1 min]×35 cycles, 72° C. 2 min, hold at 4° C. 1.
Gene-specific reverse primer: (reverse complement starting from nt 80162): 5′ […]

[3] = system: CFBE cells at ALI; experiment: Ussing chamber assay, short circuit current; conditions: apical PBAE/PLGA/MPG NPs, 2 mg/dose, 3 doses
Experimental: as §1
Ussing experiments were performed as previously described (Bruscia, et al., Proc Natl Acad Sci USA 103, 2965-2970 (2006)). An Easy Mount Ussing Chamber System (Physiologic Instruments) was heated to 37° C. Electrode tips were prepared by partial filling with 3% agar in 3M KCl and subsequently backfilling with a 3M KCl. The Ussing chambers are equipped with current and voltage electrodes loaded with these tips. […] The transepithelial voltage and membrane resistance was measured during each pulse. Under these conditions, short circuit current (Isc) was calculated using Ohm's Law at the timepoint wherein the basolateral chamber was filled with a chloride-free solution following 20 minutes of equilibration in Kreb's Bicarbonate Ringers. […]

Row | Substance | gene editing (ddPCR, fractional abundance of edited CFTR allele) [1] | gene modification by allele-specific PCR [2] | Isc (short circuit current), cAMP stimulated [3]
1 | H-KKK-TJTJJTTT-OOO-TTTCCTCTATGGGTAAG-KKK-NH2 [hCF PNA] (TNTNNTTTTTTCCTCTATGGGTAAG; listed as DNA, chemistry not fully specified) | minimal correction | had the desired gene modification | minimum Isc
2 | H-KKK-TJTJJTTT-OOO-TTTCCTCTATGGGTAAG-KKK-NH2 [γhCF PNA-h] (TNTNNTTTTTTCCTCTATGGGTAAG; listed as DNA, chemistry not fully specified) [tail clamp PNA targeting human CFTR gene with MPγ monomers in Hoogsteen domain] | −5% | had the desired gene modification | marked increase
